These results are taken from article PMC7099204, “Geranylated Coumarins From Thai Medicinal Plant Mammea siamensis With Testosterone 5α-Reductase Inhibitory Activity” (Frontiers in Chemistry, 2020).

This experiment addresses T1, testosterone 5α-reductase (Rattus norvegicus, UniProt P24008).
T1 sequence (P24008 1-259): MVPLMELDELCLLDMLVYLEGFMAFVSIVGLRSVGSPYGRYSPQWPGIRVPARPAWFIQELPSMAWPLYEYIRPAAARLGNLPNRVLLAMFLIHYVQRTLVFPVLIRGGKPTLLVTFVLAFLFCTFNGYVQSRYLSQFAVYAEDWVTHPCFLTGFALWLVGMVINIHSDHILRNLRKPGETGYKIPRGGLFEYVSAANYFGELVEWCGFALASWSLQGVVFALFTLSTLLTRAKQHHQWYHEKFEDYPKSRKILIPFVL
The experiment can be described thus: Assay for testosterone 5α-reductase inhibitory activity (rat liver S9 fractions, HPLC of remaining testosterone). Format: biochemical. On the procedure:
The experiment was performed in accordance with previously reported methods (Matsuda et al., [2001]; Lee et al., [2012]; Koseki et al., [2015]) with slight modifications. In brief, the assay was performed in 48-well microplates (Sumitomo Bakelite Co., Ltd., Tokyo, Japan). The reaction solution was pre-incubated with or without a test sample (5 μL/well, dissolved in DMSO), in a potassium phosphate buffer (40 mM, pH 6.5, 490 μL/well) containing substrate (0.35 nmol of testosterone, Tokyo Chemical Industry Co., Ltd., Tokyo, Japan) and NADPH (10 nmol, Oriental Yeast Co., Ltd., Tokyo, Japan) at room temperature (25°C) for 20 min. The enzymatic reaction was initiated by the addition of rat liver S9 fractions (10 μL/well, dissolved in the phosphate buffer, 20.6 μg/well, Oriental Yeast Co., Ltd., Tokyo, Japan, lot no. 109031513) at 37°C for 30 min. After incubation, the reaction mixture was immediately heated in boiling water for 2 min to stop the reaction. Then the reaction solution of each well was transferred to a microtube and extracted with 500 μL of EtOAc. After the microtube was centrifuged (10,000 rpm, 5 min), an aliquot of each EtOAc phase (300 μL) was transferred into another tube. The solvent in the tube was evaporated and the residue was dissolved in 30 μL of acetonitrile containing an internal standard (I.S.) fludrocortisone acetate (20 μg/mL, Sigma-Aldrich, Co., LLC, St. Louis, USA). […] The 5α-reductase inhibitory activity was determined from the following equation using the peak area ratios (r = testosterone/I.S.). Experiments were performed in triplicate or quadruple, and IC50 values were determined graphically. The 5α-reductase inhibitor finasteride (Tokyo Chemical Industry Co., Ltd., Tokyo, Japan) was used as a reference compound.
Inhibition(%)=[r(T)-r(C)/r(B)-r(C)]× 100
Control (C): enzyme (+), test sample (–); Test (T): enzyme (+), test sample (+); Blank (B): enzyme (–), test sample (+).

[1] abbreviates: 100 μM, mean ± S.E.M. (N = 3–4), read-out: Inhibition (%).
[2] abbreviates: 3 μM, mean ± S.E.M. (N = 3–4), read-out: Inhibition (%).
The mark [3] stands for this setting: 10 μM, mean ± S.E.M. (N = 3–4), read-out: Inhibition (%).
[4] abbreviates: 30 μM, mean ± S.E.M. (N = 3–4), read-out: Inhibition (%).

Like-named read-outs stand apart in the source and are kept apart here.

As a reminder, the inhibition is the change of the read-out against control, counted positive when it falls.

Consider `CCCC(=O)c1c(O)c2c(c3c([C@@H](O)CC)cc(=O)oc13)OC(C)(CCC=C(C)C)C=C2` (some centres unmarked) [Compound 1, kayeassamin I], for which the inhibition at 100 µM under setting [1] came out at 37.5 ± 11.1%.
As for `CC[C@H](O)c1cc(=O)oc2c(C(=O)CC(C)C)c(O)c3c(c12)OC(C)(CCC=C(C)C)C=C3` (some centres unmarked) [Compound 2, Mammeasin E], the inhibition at 3 µM under setting [2] amounted to 20 ± 9.2%. In addition, under setting [3], the inhibition at 10 µM is 30.9 ± 9.3%. Besides, under setting [4], the inhibition at 30 µM turned out to be 53.9 ± 12.7%. Further, the inhibition at 100 µM under setting [1] worked out at 89.5 ± 15.8%.
As for `CCC(C)C(=O)c1c(O)c2c(c3c([C@@H](O)CC)cc(=O)oc13)OC(C)(CCC=C(C)C)C=C2` (some centres unmarked) [Compound 3, Mammeasin F], under setting [1], the inhibition at 100 µM is 14.9 ± 5.4%.
For `CCCC(=O)c1c(O)c(C/C=C(\C)CCC=C(C)C)c(O)c2c([C@H](CC)OC(C)=O)cc(=O)oc12` [Compound 4, Mammeasin A], the inhibition at 3 µM under setting [2] turned out to be 12.6 ± 10.5%. Also, the inhibition at 10 µM under setting [3] is 40.8 ± 12.8%. Further, under setting [4], the inhibition at 30 µM amounted to 53.1 ± 5.2%. In addition, the inhibition at 100 µM under setting [1] was 129 ± 20.9%.
For `CC[C@H](OC(C)=O)c1cc(=O)oc2c(C(=O)CC(C)C)c(O)c(C/C=C(\C)CCC=C(C)C)c(O)c12` [Compound 5, Mammeasin B], the inhibition at 3 µM under setting [2] turned out to be 35.3 ± 6.1%. The inhibition at 10 µM under setting [3] worked out at 39.9 ± 4.2%. In addition, the inhibition at 30 µM under setting [4] came to 58.8 ± 9.6%. Moreover, the inhibition at 100 µM under setting [1] worked out at 83.7 ± 4.3%.
`CC(C)=CCC/C(C)=C/Cc1c(O)c(C(=O)C(C)C)c2oc(=O)cc3c2c1OC(C)C3` (centres unmarked) [Compound 6, Mammeasin C]: the inhibition at 3 µM under setting [2] was 3.4 ± 13.1%. Under setting [3], the inhibition at 10 µM is 8.8 ± 10%. Besides, under setting [4], the inhibition at 30 µM was determined as 17.9 ± 10.6%. Moreover, the inhibition at 100 µM under setting [1] turned out to be 52.9 ± 22.5%.
As to `CCCC(=O)c1c(O)c(C/C=C(\C)CCC=C(C)C)c2c3c(cc(=O)oc13)CC(C)O2` (centres unmarked) [Compound 7, Mammeasin D], the inhibition at 100 µM under setting [1] worked out at 16.4 ± 5.8%.
Still for that read-out and setting: with `CCCC(=O)c1c(O)c(C/C=C(\C)CCC=C(C)C)c(O)c2c([C@@H](O)CC)cc(=O)oc12` [Compound 8, kayeassamin A] the figure was 20.2 ± 7.9%.
As for `CCCC(=O)c1c(O)c(CC=C(C)C)c2oc(=O)cc([C@@H](O)CC)c2c1O` [Compound 9, Kayeassamin E], the inhibition at 3 µM under setting [2] came to 2.6 ± 7.1%. The inhibition at 10 µM under setting [3] amounted to 11.5 ± 12.7%. The inhibition at 30 µM under setting [4] worked out at 51.1 ± 12.4%. In addition, under setting [1], the inhibition at 100 µM is 79.9 ± 12.7%.
For `CCC(C)C(=O)c1c(O)c(CC=C(C)C)c2oc(=O)cc([C@@H](O)CC)c2c1O` (some centres unmarked) [Compound 10, Kayeassamin F], under setting [2], the inhibition at 3 µM is 4.6 ± 1.1%. Also, under setting [3], the inhibition at 10 µM worked out at 41 ± 6.4%. For the same compound, the inhibition at 30 µM under setting [4] came out at 68.6 ± 3.9%. Moreover, the inhibition at 100 µM under setting [1] was determined as 94.6 ± 1.3%.
The corresponding values for `CC[C@H](O)c1cc(=O)oc2c(CC=C(C)C)c(O)c(C(=O)CC(C)C)c(O)c12` [Compound 11, Kayeassamin G] are 14.4 ± 9.7%, 37.5 ± 6.9%, 61.3 ± 3% and 62.3 ± 3.2%.
On to `CCC(C)C(=O)c1c(O)c(C/C=C(\C)CCC=C(C)C)c(O)c2c([C@H](CC)OC(C)=O)cc(=O)oc12` (some centres unmarked) [Compound 12, surangin B], for which, under setting [1], the inhibition at 100 µM stood at 38.5 ± 5%.
As to `CCC(C)C(=O)c1c(O)c(C/C=C(\C)CCC=C(C)C)c(O)c2c([C@@H](O)CC)cc(=O)oc12` (some centres unmarked) [Compound 13, surangin C], the inhibition at 3 µM under setting [2] was determined as 28.2 ± 7.7%. Further, under setting [3], the inhibition at 10 µM is 63.6 ± 8.3%. The inhibition at 30 µM under setting [4] was determined as 114 ± 6.7%. Also, under setting [1], the inhibition at 100 µM is 124 ± 9.6%.
As to `CC(C)=CCc1c(O)c(C(=O)CC(C)C)c(O)c2c(-c3ccccc3)cc(=O)oc12` [Compound 17, Mammea A/AA], the inhibition at 3 µM stood at 18.9 ± 7%, the inhibition at 10 µM was determined as 32 ± 3.9%, the inhibition at 30 µM was determined as 62 ± 2.8% and the inhibition at 100 µM was found to be 92.9 ± 5.3%.
As for `CCC(C)C(=O)c1c(O)c(CC=C(C)C)c2oc(=O)cc(-c3ccccc3)c2c1O` (centres unmarked) [Compound 18, mammea A/AB], the inhibition at 100 µM under setting [1] was 23.3 ± 7.2%.
Take `CCCC(=O)c1c(O)c(CC=C(C)C)c2oc(=O)cc(-c3ccccc3)c2c1O` [Compound 19, Mammea A/AC]: the inhibition at 100 µM under setting [1] was determined as 41.5 ± 11.4%.
On the same count and under the same terms, the result for `CC(C)=CCc1c(O)c(C(=O)C(C)C)c(O)c2c(-c3ccccc3)cc(=O)oc12` [Compound 20, Mammea A/AD] reads 30.3 ± 2.1%; that for `CC(C)CC(=O)c1c2c(c3oc(=O)cc(-c4ccccc4)c3c1O)C=CC(C)(C)O2` [Compound 24, Mammea A/AA cyclo D], 38.3 ± 3.8%; that for `CCC(C)C(=O)c1c2c(c3oc(=O)cc(-c4ccccc4)c3c1O)C=CC(C)(C)O2` (centres unmarked) [Compound 25, Mammea A/AB cyclo D], 6.7 ± 4.5%.
With `CCCC(=O)c1c2c(c3oc(=O)cc(-c4ccccc4)c3c1O)C=CC(C)(C)O2` [Compound 26, Mammea A/AC cyclo D], the inhibition at 100 µM under setting [1] turned out to be 32 ± 1.9%.
Same read-out and setting: the result for `CCCc1cc(=O)oc2c3c(c(C(=O)C(C)CC)c(O)c12)OC(C)(C)C=C3` (centres unmarked) [Compound 27, Mammea B/AB cyclo D] reads 40.7 ± 18.1%.
For the compound `CCCC(=O)c1c2c(c3oc(=O)cc(CCC)c3c1O)C=CC(C)(C)O2` [Compound 28, Mammea B/AC cyclo D], under setting [1], the inhibition at 100 µM was found to be 27.3 ± 2%.
Regarding `CCCC(=O)c1c(O)c2c(c3c(C(CC)OC(C)=O)cc(=O)oc13)OC(C)(C)C=C2` (centres unmarked) [Compound 29, Mammea E/BC cyclo D], the inhibition at 100 µM under setting [1] came to 31.9 ± 3.9%.
The same measure, in the same setting: the result for `CC[C@H](O)c1cc(=O)oc2c3c(c(C(=O)CC(C)C)c(O)c12)OC(C)(C)C=C3` [Compound 31, deacetylmammea E/AA cyclo D] reads 37.1 ± 4%.
Regarding `CCC(C)C(=O)c1c(O)c2c(c3c([C@@H](O)CC)cc(=O)oc13)OC(C)(C)C=C2` (some centres unmarked) [Compound 32, deacetylmammea E/BB cyclo D], the inhibition at 100 µM under setting [1] turned out to be 31.9 ± 8.8%.
In the case of `CCCC(=O)c1c(O)c2c(c3c([C@@H](O)CC)cc(=O)oc13)OC(C)(C)C=C2` [Compound 33, deacetylmammea E/BC cyclo D], under setting [1], the inhibition at 100 µM is 40.8 ± 4.1%.
On to `CC(C)CC(=O)c1c2c(c3oc(=O)cc(-c4ccccc4)c3c1O)CC(C(C)(C)O)O2` (centres unmarked) [Compound 34, mammea A/AA cyclo F], for which the inhibition at 3 µM under setting [2] turned out to be 13.8 ± 6.7%. In addition, the inhibition at 10 µM under setting [3] came to 21.6 ± 10.3%. Besides, the inhibition at 30 µM under setting [4] was 62.8 ± 18.1%. In addition, the inhibition at 100 µM under setting [1] is 57 ± 15.7%.
Regarding `CCCC(=O)c1c2c(c3oc(=O)cc(-c4ccccc4)c3c1O)CC(C(C)(C)O)O2` (centres unmarked) [Compound 35, mammea A/AC cyclo F], the inhibition at 3 µM under setting [2] is 4.2 ± 6.1%. Besides, the inhibition at 10 µM under setting [3] was 18.4 ± 6.9%. For the same compound, under setting [4], the inhibition at 30 µM is 32.5 ± 6%. Besides, the inhibition at 100 µM under setting [1] was determined as 54.8 ± 23.2%.
As for `CC(C)(C)NC(=O)[C@H]1CC[C@H]2[C@@H]3CC[C@H]4NC(=O)C=C[C@]4(C)[C@H]3CC[C@]12C` [Finasteride, finasteride, reference compound], the inhibition at 0.1 µM came out at 48.5 ± 10.9%, the inhibition at 0.3 µM turned out to be 61.8 ± 11.4%, the inhibition at 1 µM stood at 76 ± 9.8% and the inhibition at 3 µM is 91.3 ± 13.1%.
